Test results as given in US7534894B2, “Biphenyloxy-acids” (Wyeth, priority 2003, dated 2009).

Legend:
[1] = target: T1, recombinant human plasminogen activator inhibitor-1 (PAI-1) (Homo sapiens, UniProt P05121); experiment: Primary Screen for the PAI-1 Inhibition (residual tPA activity, chromogenic substrate Spectrozyme-tPA); assay type: biochemical; conditions: 140 nM PAI-1, 70 nM tPA, pH 6.6; for inhibition at 25 µM: 25 μM test compound; for inhibition at 100 µM: 100 μM test compound
T1 construct: purchased Molecular Innovations, Royal Oak, Mich
T1 sequence (P05121 24-402): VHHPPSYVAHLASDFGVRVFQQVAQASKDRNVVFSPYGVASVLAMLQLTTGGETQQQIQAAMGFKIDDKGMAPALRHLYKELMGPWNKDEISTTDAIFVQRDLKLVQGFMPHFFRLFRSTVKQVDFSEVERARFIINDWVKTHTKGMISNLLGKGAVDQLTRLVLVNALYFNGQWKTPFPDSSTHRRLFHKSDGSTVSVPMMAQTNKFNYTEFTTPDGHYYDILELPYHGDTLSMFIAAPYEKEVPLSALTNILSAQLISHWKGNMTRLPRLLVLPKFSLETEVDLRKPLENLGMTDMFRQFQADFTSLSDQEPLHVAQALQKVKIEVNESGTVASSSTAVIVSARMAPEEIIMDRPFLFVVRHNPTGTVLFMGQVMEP
Method: Test compounds are dissolved in DMSO at a final concentration of 10 mM, then diluted 101× in physiologic buffer. The inhibitory assay is initiated by the addition of the test compound (1-100 μM final concentration, maximum DMSO concentration of 0.2%) in a pH 6.6 buffer containing 140 nM recombinant human plasminogen activator inhibitor-1 (PAI-1; Molecular Innovations, Royal Oak, Mich.). Following a 1 hour incubation at room temperature, 70 nM of recombinant human tissue plasminogen activator (tPA) is added, and the combination of the test compound, PAI-1 and tPA is incubated for an additional 30 minutes. Following the second incubation, Spectrozyme-tPA (American Diagnostica, Greenwich, Conn.), a chromogenic substrate for tPA, is added and absorbance read at 405 nm at 0 and 60 minutes. Relative PAI-1 inhibition is equal to the residual tPA activity in the presence of the test compound and PAI-1. Control treatments include the complete inhibition of tPA by PAI-1 at the molar ratio employed (2:1), and the absence of any effect of the test compound on tPA alone.

human PAI-1 = human PAI-1 (Homo sapiens, UniProt P05121); experiment: Antibody Assay for Determining IC50 of Inhibition of PAI-1 (active PAI-1 bound to tPA-coated plate, 33B8 antibody); assay type: binding; conditions: test compound incubated with human PAI-1 50 ng/ml, pH 7.5
Sequence of human PAI-1 (P05121 24-402): as above
Method: This assay is based upon the non-SDS dissociable interaction between tPA and active PAI-1. Assay plates are initially coated with human tPA (10 μg/ml). Test compounds of the present invention are dissolved in DMSO at 10 mM, then diluted with physiologic buffer (pH 7.5) to a final concentration of 1-50 μM. Test compounds are incubated with human PAI-1 (50 ng/ml) for 15 minutes at room temperature. The tPA-coated plate is washed with a solution of 0.05% Tween 20 and 0. 1% BSA, then the plate is blocked with a solution of 3% BSA. An aliquot of the substituted biphenyloxy acid/PAI-1 solution is then added to the tPA-coated plate, incubated at room temperature for 1 hour, and washed. Active PAI-1 bound to the plate is assessed by adding an aliquot of a 1:1000 dilution of the 33B8 monoclonal antibody against human PAI-1, and incubating the plate at room temperature for 1 hour (Molecular Innovations, Royal Oak, Mich.). The plate is again washed, and a solution of goat anti-mouse IgG-alkaline phosphatase conjugate is added at a 1:50,000 dilution in goat serum. The plate is incubated 30 minutes at room temperature, washed, and a solution of alkaline phosphatase substrate is added. The plate is incubated 45 minutes at room temperature, and color development is determined at OD405nm. The quantitation of active PAI-1 bound to tPA at varying concentrations of the test compound is used-to determine the IC50. Results are analyzed using a logarithmic best-fit equation. The assay sensitivity is 5 ng/ml of human PAI-1 as determined from a standard curve ranging from 0-100 ng/ml.

inhibition at 25 µM [1] [%] | inhibition at 100 µM [1] [%] | IC50 (human PAI-1) [µM] | melting point [°C] | SMILES
42 | 94 | 10.8 |  | CCCCc1oc2ccccc2c1C(=O)N(C)Cc1ccc(-c2ccc(OCc3nnn[nH]3)c(Br)c2)cc1 [Compound 6, N-{[3′-bromo-4′-(1H-tetraazol-5-ylmethoxy)-1,1′-biphenyl-4-yl]methyl}-2-butyl-N-methyl-1-benzofuran-3-carboxamide]
64 | 100 | 18.7 | 72 to 78 | CCCCc1oc2ccccc2c1C(=O)N(C)Cc1ccc(-c2ccc(OCC(=O)O)c(Br)c2)cc1 [Compound 7, [(3-bromo-4′-{[[(2-butyl-1-benzofuran-3-yl)carbonyl](methyl)amino]methyl}-1,1′-biphenyl-4-yl)oxy]acetic acid]
55 | 96 | 20 | 79 to 86 | CCCCc1oc2ccccc2c1C(=O)N(C)Cc1ccc(-c2ccc(OC(Cc3ccccc3)C(=O)O)c(Br)c2)cc1 (stereo not shown) [Compound 8, 2-[(3-bromo-4′-{[[(2-butyl-1-benzofuran-3-yl)carbonyl](methyl)amino]methyl}-1,1′-biphenyl-4-yl)oxy]-3-phenylpropanoic acid]

Further lines, the molecule ahead of its results:

SMILES | inhibition at 25 µM [1] [%] | inhibition at 100 µM [1] [%] | IC50 (human PAI-1) [µM] | melting point [°C]
CCCc1c(C(=O)NCc2ccc(-c3ccc(OCC(=O)O)c(Br)c3)cc2)cnn1-c1ccccc1 [Compound 3, {[3-bromo-4′-({[(1-phenyl-5-propyl-1H-pyrazol-4-yl)carbonyl]amino}methyl)[1,1′-biphenyl]-4-yl]oxy}acetic acid] | 47 | 88 | 37.5 | 204 to 206
CN(Cc1ccc(-c2ccc(OCc3nnn[nH]3)c(Br)c2)cc1)C(=O)c1cn(C)c2ccccc12 [Compound 9, N-{[3′-bromo-4′-(1H-tetraazol-5-ylmethoxy)-1,1′-biphenyl-4-yl]methyl}-N,1-dimethyl-1H-indole-3-carboxamide] | 41 | 81 | 46.3 | 239
CN(Cc1ccc(-c2ccc(OCc3nnn[nH]3)c(Br)c2)cc1)C(=O)c1cn(Cc2ccccc2)c2ccccc12 [Compound 10, 1-Benzyl-N-{[3′-bromo-4′-(1H-tetraazol-5-ylmethoxy)-1,1′-biphenyl-4-yl]methyl}-N-methyl-1H-indole-3-carboxamide] | 45 | 76 | 30 | 
